How the values were obtained:
Assay type in all cases: in vivo
[1] = test system: cocklebur (Xanthium strumarium); experiment: Test C preemergence
In short: (§1)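 Plants held in greenhouse for 12–14 days post-application are scored by eye against controls on a 0–100 control scale. Application timing: preemergence on sown seed, or postemergence on 2–18 cm plants.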

[2] = test system: giant foxtail (Setaria faberii); experiment: Test C preemergence
In short: as §1

[3] = test system: bermudagrass (Cynodon dactylon); experiment: Test C preemergence
In short: as §1

[4] = test system: common ragweed (Ambrosia elatior); experiment: Test C preemergence
In short: as §1

[5] = test system: lambsquarters (Chenopodium album); experiment: Test C preemergence
In short: as §1

[6] = test system: goosegrass (Eleusine indica); experiment: Test C preemergence
In short: as §1

[7] = test system: morningglory (Ipomoea hederacea); experiment: Test C preemergence
In short: as §1

[8] = test system: corn (Zea mays); experiment: Test C preemergence
In short: as §1

[9] = test system: Sunflower; experiment: Test C preemergence; conditions: Rate 125 g/ha; scale 0 to 100, 0 no effect, 100 complete control
[10] = test system: yellow nutsedge (Cyperus esculentus); experiment: Test C preemergence
In short: as §1

[11] = test system: velvetleaf (Abutilon theophrasti); experiment: Test C preemergence
In short: as §1

[12] = test system: johnsongrass (Sorghum halepense); experiment: Test C preemergence
In short: as §1

[13] = test system: soybean (Glycine max); experiment: Test C preemergence
In short: as §1

[14] = test system: Nightshade; experiment: Test C preemergence
[15] = test system: woolly cupgrass (Eriochloa villosa); experiment: Test C preemergence
In short: as §1

[16] = test system: pigweed (Amaranthus retroflexus); experiment: Test C preemergence
In short: as §1

[17] = test system: crabgrass (Digitaria sanguinalis); experiment: Test C preemergence
In short: as §1

[18] = test system: Surinam grass (Brachiaria decumbens); experiment: Test C preemergence
In short: as §1

[19] = test system: kochia (Kochia scoparia); experiment: Test C preemergence
In short: as §1

[20] = test system: Sunflower; experiment: Test C preemergence; conditions: Rate 500 g/ha, visual evaluation after 12 to 14 days
[21] = test system: rice (Oryza saliva); experiment: Test C flooded paddy test; conditions: for Rice plant response rating: Flooded Paddy, scale 0 to 100, 0 no effect, 100 complete control; for Plant response rating, Rice: flooded paddy test, scale 0 to 100 (0 no effect, 100 complete control)
In short: (§2)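 Flooded paddy, 2-leaf stage at treatment. Readout: visual % control vs untreated, 0–100, at 12–14 d in greenhouse.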

[22] = test system: barnyardgrass (Echinochloa crus-galli); experiment: Test C flooded paddy test; conditions: for Barnyardgrass plant response rating: Flooded Paddy, scale 0 to 100, 0 no effect, 100 complete control; for Plant response rating, Barnyardgrass: flooded paddy test, scale 0 to 100 (0 no effect, 100 complete control)
In short: as §2

[23] = Rate 125 g/ha, scale 0 to 100, 0 no effect, 100 complete control
[24] = preemergence, Rate 62 g/ha, scale 0 to 100
[25] = preemergence, Rate 500 g/ha, visual evaluation after 12 to 14 days
[26] = preemergence, Rate 250 g/ha, scale 0 to 100, 0 no effect, 100 complete control

Structure (SMILES): CCCC(C)c1ccn(C2SCN(c3cccc(C(F)(F)F)c3)C2=O)n1 (stereo not drawn) [Compound 92]
- Plant response rating, Cocklebur [1, 23]: 0
- Plant response rating, Cocklebur [1, 24]: 0
- Plant response rating (0 to 100), Cocklebur [1, 25]: 20
- Plant response rating, Cocklebur [1, 26]: 20
- Plant response rating, Foxtail, Giant [2, 23]: 0
- Plant response rating, Foxtail, Giant [2, 24]: 20
- Plant response rating (0 to 100), Foxtail, Giant [2, 25]: 100
- Plant response rating, Foxtail, Giant [2, 26]: 100
- Plant response rating, Bermudagrass [3, 23]: 20
- Plant response rating, Bermudagrass [3, 24]: 20
- Plant response rating (0 to 100 where 0 is no effect and 100 is complete control), Bermudagrass [3, 25]: 90
- Plant response rating, Bermudagrass [3, 26]: 85
- Plant response rating, Ragweed, Common [4, 23]: 0
- Plant response rating, Ragweed, Common [4, 24]: 0
- Plant response rating (0 to 100), Ragweed, Common [4, 25]: 40
- Plant response rating, Ragweed, Common [4, 26]: 0
- Plant response rating, Lambsquarters [5, 23]: 100
- Plant response rating, Lambsquarters [5, 24]: 80
- Plant response rating (0 to 100), Lambsquarters [5, 25]: 100
- Plant response rating, Lambsquarters [5, 26]: 100
- Plant response rating, Goosegrass [6, 23]: 75
- Plant response rating, Goosegrass [6, 24]: 60
- Plant response rating (0 to 100), Goosegrass [6, 25]: 100
- Plant response rating, Goosegrass [6, 26]: 100
- Plant response rating, Morningglory [7, 23]: 0
- Plant response rating, Morningglory [7, 24]: 0
- Plant response rating (0 to 100), Morningglory [7, 25]: 0
- Plant response rating, Morningglory [7, 26]: 0
- Plant response rating, Corn [8, 23]: 10
- Plant response rating, Corn [8, 24]: 0
- Plant response rating (0 to 100), Corn [8, 25]: 40
- Plant response rating, Corn [8, 26]: 30
- Plant response rating, Sunflower [9]: 0
- Plant response rating, Nutsedge [10, 23]: 0
- Plant response rating, Nutsedge [10, 24]: 0
- Plant response rating (0 to 100), Nutsedge [10, 25]: 0
- Plant response rating, Nutsedge [10, 26]: 0
- Plant response rating, Velvetleaf [11, 23]: 0
- Plant response rating, Velvetleaf [11, 24]: 0
- Plant response rating (0 to 100), Velvetleaf [11, 25]: 0
- Plant response rating, Velvetleaf [11, 26]: 0
- Plant response rating, Johnsongrass [12, 23]: 65
- Plant response rating, Johnsongrass [12, 24]: 50
- Plant response rating (0 to 100), Johnsongrass [12, 25]: 100
- Plant response rating, Johnsongrass [12, 26]: 70
- Plant response rating, Soybean [13, 23]: 0
- Plant response rating, Soybean [13, 24]: 0
- Plant response rating (0 to 100), Soybean [13, 25]: 100
- Plant response rating, Soybean [13, 26]: 30
- Plant response rating, Nightshade ([14]; Rate 62 g/ha, scale 0 to 100): 0
- Plant response rating, Nightshade [14, 23]: 0
- Plant response rating, Nightshade ([14]; Rate 250 g/ha, scale 0 to 100, 0 no effect, 100 complete control): 20
- Plant response rating, Cupgrass, Woolly [15, 23]: 10
- Plant response rating, Cupgrass, Woolly [15, 24]: 0
- Plant response rating (0 to 100), Cupgrass, Woolly [15, 25]: 50
- Plant response rating, Cupgrass, Woolly [15, 26]: 50
- Plant response rating, Pigweed [16, 23]: 0
- Plant response rating, Pigweed [16, 24]: 0
- Plant response rating (0 to 100), Pigweed [16, 25]: 50
- Plant response rating, Pigweed [16, 26]: 100
- Plant response rating, Crabgrass [17, 23]: 80
- Plant response rating, Crabgrass [17, 24]: 60
- Plant response rating (0 to 100), Crabgrass [17, 25]: 100
- Plant response rating, Crabgrass [17, 26]: 100
- Plant response rating, Surinam grass [18, 23]: 0
- Plant response rating, Surinam grass [18, 24]: 0
- Plant response rating (0 to 100), Surinam grass [18, 25]: 35
- Plant response rating, Surinam grass [18, 26]: 20
- Plant response rating, Kochia [19, 23]: 40
- Plant response rating, Kochia [19, 24]: 0
- Plant response rating (0 to 100), Kochia [19, 25]: 100
- Plant response rating, Kochia [19, 26]: 70
- Plant response rating (0 to 100), Sunflower [20]: 55
- Rice plant response rating ([21]; Rate 250 g/ha): 30
- Rice plant response rating ([21]; Rate 500 g/ha): 30
- Plant response rating, Rice ([21]; Rate 62 g/ha): 0
- Plant response rating, Rice ([21]; Rate 125 g/ha): 0
- Barnyardgrass plant response rating ([22]; Rate 250 g/ha): 100
- Barnyardgrass plant response rating ([22]; Rate 500 g/ha): 100
- Plant response rating, Barnyardgrass ([22]; Rate 62 g/ha): 50
- Plant response rating, Barnyardgrass ([22]; Rate 125 g/ha): 100

Reference: patent US7138361B2, “Herbicidal heterocycles” (E. I. du Pont de Nemours and Company, priority 2000, dated 2006)
